We go through ten compounds from patent publication US12043600B2, “Microbiocidal compounds” (SYNGENTA CROP PROTECTION AG, priority 2018, dated 2024).

Some results are limits rather than exact numbers.

The inhibition of growth is the change of the read-out against control, counted positive when it falls. Low values mean a response near the control, high ones a response far below the control. A word on the melting point: it is the temperature, or range, at which the solid turns liquid.

Series [1] deals with Botryotinia fuckeliana (Botrytis cinerea). Nature of the series: Botryotinia fuckeliana (Botrytis cinerea)/Liquid Culture (Gray Mould). The series is classed as cell-based. As to conditions: liquid culture, compared to untreated control. The procedure:
Conidia of the fungus from cryogenic storage are directly mixed into nutrient broth (Vogels broth). After placing a (DMSO) solution of test compound into a microtiter plate (96-well format), the nutrient broth containing the fungal spores is added.

Series [2] deals with Glomerella lagenarium (Colletotrichum lagenarium). Put plainly: Glomerella lagenarium (Colletotrichum lagenarium)/Liquid Culture (Anthracnose). The settings on record: Colletotrichum orbiculare, liquid culture, compared to untreated control. Format: cell-based.
Series [3] concerns Blumeria graminis f. sp. tritici (Erysiphe graminis f. sp. tritici). Put plainly: Blumeria graminis f. sp. tritici/Wheat/Leaf Disc Preventative (Powdery Mildew on Wheat). As to conditions: foliar, wheat leaf disc preventative, compared to untreated control. The series is classed as in vivo. A digest of the protocol:
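Preventative leaf-disc test: percent disease control versus untreated leaf segments read 6-8 days post-application. Compound spray applied to wheat cv. Kanzler segments on agar one day before shaking infected plants over them; incubation at 20° C and 60% rh, 24 h darkness then 12 h light/12 h dark cycles.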

The subject of series [4] is Phaeosphaeria nodorum (Septoria nodorum). Nature of the series: Phaeosphaeria nodorum (Septoria nodorum)/Wheat/Leaf Disc Preventative (Glume Blotch). The series is classed as in vivo. The settings on record: Parastagonospora nodorum, foliar, wheat leaf disc preventative, compared to untreated control. A digest of the protocol:
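Preventative test: compound spray first, then spore inoculation after 2 days on cv. Kanzler wheat leaf segments. Incubation in a climate cabinet at 20 °C and 75% rh under a 12 h light/12 h dark cycle. Activity rated as % control relative to untreated discs at 5–7 days post-application.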

The test system of series [5] is Monographella nivalis (Microdochium nivale). Put plainly: Monographella nivalis (Microdochium nivale)/Liquid Culture (Foot Rot Cereals). Format: cell-based. As to conditions: liquid culture, compared to untreated control. A digest of the protocol:
(§1)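 Growth inhibition read in liquid culture: spores from frozen stocks, suspended in potato dextrose broth, meet DMSO-dissolved compound placed beforehand in the plate.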

In series [6] the test system is Mycosphaerella arachidis (Cercospora arachidicola). Put plainly: Mycosphaerella arachidis (Cercospora arachidicola)/Liquid Culture (Early Leaf Spot). The series is classed as cell-based. The settings on record: liquid culture, compared to untreated control. A digest of the protocol:
as §1

The next series relates to Phytophthora infestans. Nature of the series: whole plant or invertebrate. The series is classed as in vivo. The settings on record: in Solanum lycopersicum, foliar, read-out: control of Phytophthora infestans.
The next series has as its system Plasmopara viticola. Nature of the series: whole plant or invertebrate. The series is classed as in vivo. As to conditions: foliar, read-out: control of Plasmopara viticola.
In series [7] the test system is Puccinia recondita f. sp. tritici. Put plainly: Puccinia recondita f. sp. tritici/Wheat/Leaf Disc Preventative (Brown Rust). The series is classed as in vivo. As to conditions: foliar, 200 ppm, wheat leaf disc preventative, compared to untreated control, read-out: control of Puccinia recondita f. sp. tritici.
The test system of series [8] is Magnaporthe grisea (Pyricularia oryzae). Nature of the series: whole plant or invertebrate. The series is classed as in vivo. The settings on record: foliar, read-out: control of Magnaporthe grisea.
Series [9] concerns Mycosphaerella graminicola (Septoria tritici). Nature of the series: Mycosphaerella graminicola (Septoria tritici)/Liquid Culture (Septoria Blotch). Format: cell-based. The settings on record: Zymoseptoria tritici; 20 ppm; liquid culture; compared to untreated control. A digest of the protocol:
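Results given as % disease control: test compound in DMSO was placed in wells first, then potato dextrose broth carrying cryostored fungal conidia was added.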

Another series deals with Phakopsora pachyrhizi. Put plainly: Phakopsora pachyrhizi/Soybean/Preventative (Soybean Rust). The series is classed as in vivo. As to conditions: foliar, 288 h, 200 ppm, soybean leaf disc preventative, compared to untreated control, read-out: control of Phakopsora pachyrhizi.
Series [10] concerns Puccinia recondita f. sp. tritici. Nature of the series: Puccinia recondita f. sp. tritici/Wheat/Leaf Disc Curative (Brown Rust). As to conditions: foliar, wheat leaf disc curative, compared to untreated control. Format: in vivo. The method, then:
Wheat leaf segments cv. Kanzler are placed on agar in multiwell plates (24-well format). The leaf segments are inoculated with a spore suspension of the fungus. Plates are stored in darkness at 19° C. and 75% rh. The formulated test compound diluted in water is applied 1 day after inoculation. The leaf segments are incubated at 19° C. and 75% rh under a light regime of 12 h light/12 h darkness in a climate cabinet and the activity of a compound is assessed as percent disease control compared to untreated when an appropriate level of disease damage appears in untreated check leaf segments (6-8 days after application).

As to `CO/C=C(\Oc1cc(-n2ccc(Cl)n2)ccc1C)C(=O)OC` [Compound E-100, methyl (Z)-2-[5-(3-chloropyrazol-1-yl)-2-methyl-phenoxy]-3-methoxy-prop-2-enoate], the melting point is 150 to 152 °C. Further, the inhibition of growth at 20 ppm in [1] is not below 80%. In [2], this compound registered an inhibition of growth at 20 ppm not below 80%. Further, in series [3], the pest or weed control at 200 ppm is not below 80%. In series [4], this compound registered a pest or weed control at 200 ppm not below 80%. In [5], this compound returned an inhibition of growth at 20 ppm not below 80%. Further, in series [6], the inhibition of growth at 20 ppm was not below 80%. Also, the pest or weed control at 200 ppm in the series on Phytophthora infestans is not below 80%. For the same compound, the pest or weed control at 200 ppm in the series with Plasmopara viticola was not below 80%. Also, in series [7], the pest or weed control at 200 ppm was not below 80%. Also, the pest or weed control at 200 ppm in series [8] is not below 80%. In series [9], this compound yielded an inhibition of growth at 20 ppm not below 80%.

Turning to `CO/C=C(\Oc1cc(-n2ccc(SC(F)(F)F)n2)ccc1C)C(=O)OC` [Compound E-61, methyl (Z)-3-methoxy-2-[2-methyl-5-[3-(trifluoromethylsulfanyl)pyrazol-1-yl]phenoxy]prop-2-enoate], the melting point lay in the range of 137 to 139 °C. Besides, the inhibition of growth at 20 ppm in [1] was not below 80%. For the same compound, the inhibition of growth at 20 ppm in series [2] was not below 80%. Also, the pest or weed control at 200 ppm in series [3] is not below 80%. The compound further came in with an inhibition of growth at 20 ppm in series [5] not below 80%. Also, in [6], the inhibition of growth at 20 ppm is not below 80%. Moreover, the pest or weed control at 200 ppm in the series with Phakopsora pachyrhizi is not below 50%. Also, the pest or weed control at 200 ppm with Phytophthora infestans is not below 80%. The pest or weed control at 200 ppm in the series on Plasmopara viticola is not below 80%. The pest or weed control at 200 ppm in series [7] is not below 80%. For the same compound, in [8], the pest or weed control at 200 ppm was not below 80%. Moreover, the inhibition of growth at 20 ppm in series [9] is not below 80%.

With `CO/C=C(\Oc1cc(-n2ccc(C(F)F)n2)ccc1C)C(=O)OC` [Compound E-96, methyl (Z)-2-[5-[3-(difluoromethyl)pyrazol-1-yl]-2-methyl-phenoxy]-3-methoxy-prop-2-enoate], the inhibition of growth at 20 ppm in [1], in [2], in series [5], in series [6] and in series [9] was not below 80% throughout. Further, the pest or weed control at 200 ppm (in series [3]; in [4]; with Phytophthora infestans; with Plasmopara viticola; in series [10]; in series [7]) was not below 80% in each case.

As for `CO/C=C(\Oc1cc(-n2cc(C(C)(C)C)cn2)ccc1C)C(=O)OC` [Compound E-49, methyl (Z)-2-[5-(4-tert-butylpyrazol-1-yl)-2-methyl-phenoxy]-3-methoxy-prop-2-enoate], the inhibition of growth at 20 ppm in [1], in series [2], in series [5], in [6] and in series [9] was not below 80% each time. Also, the pest or weed control at 200 ppm (in [4]; in the series with Phytophthora infestans; in the series with Plasmopara viticola; in series [10]; in series [7]; in series [8]) was not below 80% each time.

As to `CO/C=C(\Oc1cc(-n2cc(Br)cn2)ccc1C)C(=O)OC` [Compound E-47, methyl (Z)-2-[5-(4-bromopyrazol-1-yl)-2-methyl-phenoxy]-3-methoxy-prop-2-enoate], the inhibition of growth at 20 ppm in [1], in [2], in series [5], in series [6] and in series [9] was not below 80% each time. Also, the pest or weed control at 200 ppm in series [3] is not below 80%; in series [4], not below 80%; in the series with Phakopsora pachyrhizi, not below 50%; in the series on Phytophthora infestans, not below 80%; in the series with Plasmopara viticola it was not below 80%; in series [10], not below 80%. The pest or weed control at 200 ppm in [7] and in series [8] was not below 80% in each case.

As to `CO/C=C(\Oc1cc(-n2cc(COC)cn2)ccc1C)C(=O)OC` [Compound E-51, methyl (Z)-3-methoxy-2-[5-[4-(methoxymethyl)pyrazol-1-yl]-2-methyl-phenoxy]prop-2-enoate], the inhibition of growth at 20 ppm in [1], in series [2], in series [5], in [6] and in [9] was not below 80% in each case. In addition, the pest or weed control at 200 ppm in series [3] was not below 80%; in the series with Phakopsora pachyrhizi it was not below 50%; with Plasmopara viticola, not below 80%; in series [10] it was not below 80%; in [7] it was not below 80%; in [8] it was not below 80%.

Take `CO/C=C(\Oc1cc(-n2ccc(C)n2)c(OC)cc1C)C(=O)OC` [Compound E-37, methyl (Z)-3-methoxy-2-[4-methoxy-2-methyl-5-(3-methylpyrazol-1-yl)phenoxy]prop-2-enoate]: the melting point was in the range of 99 to 101 °C. The inhibition of growth at 20 ppm in [1] is not below 80%. The inhibition of growth at 20 ppm in [5] was not below 80%. This compound also returned an inhibition of growth at 20 ppm in [6] not below 80%. Moreover, the pest or weed control at 200 ppm with Phakopsora pachyrhizi was not below 50%. In addition, in the series on Plasmopara viticola, the pest or weed control at 200 ppm was not below 80%. For the same compound, the pest or weed control at 200 ppm in series [10] is not below 80%. The pest or weed control at 200 ppm in series [7] was not below 80%. For the same compound, in series [9], the inhibition of growth at 20 ppm was not below 80%.

With `CO/C=C(\Oc1cc(-n2cc(C)c(C)n2)ccc1C)C(=O)OC` [Compound E-116, methyl (Z)-2-[5-(3,4-dimethylpyrazol-1-yl)-2-methyl-phenoxy]-3-methoxy-prop-2-enoate], the melting point fell in the range of 155 to 157 °C. This compound also came in with an inhibition of growth at 20 ppm in series [1] not below 80%. In [2], this compound returned an inhibition of growth at 20 ppm not below 80%. For the same compound, the pest or weed control at 200 ppm in series [3] was not below 80%. The same compound showed an inhibition of growth at 20 ppm in [5] not below 80%. The same compound came in with an inhibition of growth at 20 ppm in [6] not below 80%. Besides, in the series with Phytophthora infestans, the pest or weed control at 200 ppm was not below 80%. In addition, the pest or weed control at 200 ppm with Plasmopara viticola is not below 80%. The pest or weed control at 200 ppm in series [10] was not below 80%. Besides, the pest or weed control at 200 ppm in series [7] was not below 80%. For the same compound, in series [9], the inhibition of growth at 20 ppm was not below 80%.

For the compound `CO/C=C(\Oc1cc(-n2ccc(OC)n2)ccc1C)C(=O)OC` [Compound E-95, methyl (Z)-3-methoxy-2-[5-(3-methoxypyrazol-1-yl)-2-methyl-phenoxy]prop-2-enoate], the melting point lay within 120 to 123 °C. In series [1], this compound had an inhibition of growth at 20 ppm not below 80%. Further, the inhibition of growth at 20 ppm in [2] is not below 80%. In series [3], the pest or weed control at 200 ppm was not below 80%. In [5], this compound yielded an inhibition of growth at 20 ppm not below 80%. In series [6], the inhibition of growth at 20 ppm is not below 80%. Further, the pest or weed control at 200 ppm with Phytophthora infestans is not below 80%. In addition, the pest or weed control at 200 ppm in the series on Plasmopara viticola is not below 80%. In [10], this compound had a pest or weed control at 200 ppm not below 80%. For the same compound, in series [7], the pest or weed control at 200 ppm is not below 80%. Further, the inhibition of growth at 20 ppm in [9] is not below 80%.

`CO/C=C(\Oc1cc(-n2ccc(C(C)C)n2)c(C)cc1C)C(=O)OC` [Compound E-25, methyl (Z)-2-[5-(3-isopropylpyrazol-1-yl)-2,4-dimethyl-phenoxy]-3-methoxy-prop-2-enoate] showed a melting point of 96 to 98 °C. The same compound returned an inhibition of growth at 20 ppm in series [1] not below 80%. This compound registered an inhibition of growth at 20 ppm in series [2] not below 80%. This compound returned a pest or weed control at 200 ppm in series [3] not below 80%. Further, the inhibition of growth at 20 ppm in series [5] was not below 80%. The same compound had an inhibition of growth at 20 ppm in series [6] not below 80%. Besides, the pest or weed control at 200 ppm with Phytophthora infestans was not below 80%. The pest or weed control at 200 ppm in the series with Plasmopara viticola was not below 80%. In [10], the pest or weed control at 200 ppm is not below 80%. Also, the pest or weed control at 200 ppm in series [7] is not below 80%. Also, in series [8], the pest or weed control at 200 ppm is not below 80%. Also, the inhibition of growth at 20 ppm in [9] was not below 80%.
